According to patent US10130615B2, “Benzomorphan analogs and the use thereof” (priority 2014, dated 2018):
Like-named read-outs stand apart in the source and are kept apart here.

Assays:
[1] = molecular target: T1, μ-opioid receptor (Homo sapiens, UniProt P35372); assay: biochemical; parameters: purchased Perkin Elmer, Shelton, Conn; host or cells: HEK-293 or CHO; details: HEK-293 or CHO cells; for EC50: read-out: GTPγS μ EC50; for Emax: relative to DAMGO, read-out: GTPγS μ Emax
[2] = molecular target: T1, μ-opioid receptor; assay: cell-based; parameters: purchased Perkin Elmer, Shelton, Conn; details: U2OS cells; for EC50: read-out: β-Arr2 μ EC50; for Emax: read-out: β-Arr2 μ Emax
[3] = molecular target: T2, ORL-1 receptor (Homo sapiens, UniProt P41146); assay: ORL-1 receptor radioligand binding assay ([3H]-nociceptin); details: HEK-293 or CHO cells; read-out: Ki (nM) Opioid Receptor ORL-1
T2 construct: host or cells: HEK-293
Protocol: ORL-1 Receptor Binding Assay Procedure: Membranes from recombinant HEK-293 cells expressing the human opioid receptor-like receptor (ORL-1) (Perkin Elmer, Shelton, Conn.) were prepared by lysing cells in ice-cold hypotonic buffer (2.5 mM MgCl2, 50 mM HEPES, pH 7.4) (10 ml/10 cm dish) followed by homogenization with a tissue grinder/Teflon pestle. Membranes were collected by centrifugation at 30,000×g for 15 min at 4° C. and pellets resuspended in hypotonic buffer to a final concentration of 1-3 mg/ml. Protein concentrations were determined using the BioRad protein assay reagent with bovine serum albumen as standard. Aliquots of the ORL-1 receptor membranes were stored at −80° C.
Radioligand binding assays (screening and dose-displacement) used 0.1 nM [^3H]-nociceptin (Perkin Elmer, Shelton, Conn.; 87.7 Ci/mmole) with 12 μg membrane protein in a final volume of 500 μl binding buffer (10 mM MgCl2, 1 mM EDTA, 5% DMSO, 50 mM HEPES, pH 7.4). Non-specific binding was determined in the presence of […] unlabeled nociceptin (American Peptide Company). All reactions were performed in 96-deep well polypropylene plates for 1 h at room temperature. […] The data from screening and dose-displacement experiments were analyzed using Microsoft Excel and the curve fitting functions in GraphPad PRISM™, v. 3.0 or higher, respectively, or an in-house function for one-site competition curve-fitting.

[4] = molecular target: T3, κ-opioid receptor (Homo sapiens, UniProt P41145); assay: κ-opioid receptor β-Arr2 activity response, U2OS cells; assay type: cell-based; parameters: expressed in transfected cells; host or cells: U-2 OS
[5] = molecular target: T3, κ-opioid receptor; assay: κ-opioid receptor radioligand binding assay ([3H]-U69,593); parameters: expressed in transfected cells; host or cells: HEK-293
Protocol: κ-opioid Receptor Binding Assay Procedures: Membranes from recombinant HEK-293 cells expressing the human κ opioid receptor (κ) (cloned in house) were prepared by lysing cells in ice cold hypotonic buffer (2.5 mM MgCl2, 50 mM HEPES, pH 7.4) (10 mL/10 cm dish) followed by homogenization with a tissue grinder/Teflon pestle. Membranes were collected by centrifugation at 30,000×g for 15 min at 4° C. and pellets were resuspended in hypotonic buffer to a final concentration of 1-3 mg/mL. Protein concentrations were determined using the BioRad protein assay reagent with bovine serum albumen as standard. Aliquots of κ receptor membranes were stored at −80° C.
Radioligand dose displacement assays used 0.4 nM [^3H]-U69,593 (GE Healthcare, Piscataway, N.J.; 40 Ci/mmole) with 15 μg membrane protein (recombinant κ opioid receptor expressed in HEK 293 cells; in-house prep) in a final volume of 200 μl binding buffer (5% DMSO, 50 mM Trizma base, pH 7.4). Non-specific binding was determined in the presence of 10 μM unlabeled naloxone or U69,593. All reactions were performed in 96-well polypropylene plates for 1 hr at a temperature of about 25° C.

[6] = molecular target: T3, κ-opioid receptor; assay: κ-opioid receptor GTPγS functional assay, U2OS cells; assay type: biochemical; parameters: expressed in transfected cells; host or cells: U-2 OS
Protocol: (§1) Plates were incubated for 30 min at a temperature of about 25° C. with shaking.

[7] = molecular target: T1, μ-opioid receptor; assay: μ-opioid receptor radioligand binding assay ([3H]-diprenorphine); parameters: purchased Perkin Elmer, Shelton, Conn; host or cells: HEK-293 or CHO
Protocol: μ-opioid Receptor Binding Assay Procedures: Radioligand dose-displacement binding assays for μ-opioid receptors used 0.3 nM [^3H]-diprenorphine (Perkin Elmer, Shelton, Conn.), with […] membrane protein/well in a final volume of 500 μl binding buffer (10 mM MgCl2, 1 mM EDTA, 5% DMSO, 50 mM HEPES, pH 7.4). Reactions were carried out in the absence or presence of increasing concentrations of unlabeled naloxone. All reactions were conducted in 96-deep well polypropylene plates for 2 hr at room temperature. […] The data were analyzed using the one-site competition curve fitting functions in GraphPad PRISM™ v. 3.0 or higher (San Diego, Calif.), or an in-house function for one-site competition curve-fitting.

[8] = molecular target: T3, κ-opioid receptor; assay: κ-opioid receptor [35S]GTPγS functional assay, HEK-293 or CHO cells; assay type: biochemical; parameters: expressed in transfected cells; host or cells: HEK-293; details: for Emax: relative to U69,593
Protocol: as §1

[9] = molecular target: T1, μ-opioid receptor; assay: μ-opioid receptor GTPγS functional assay, U2OS cells; details: for Emax: read-out: GTPγS μ Emax
[10] = U2OS cells, read-out: β-Arr2 κ EC50
[11] = HEK-293 or CHO cells, read-out: Ki (nM) Opioid Receptor κ
[12] = U2OS cells, read-out: GTPγS κ EC50
[13] = HEK-293 or CHO cells, read-out: Ki (nM) Opioid Receptor μ
[14] = HEK-293 or CHO cells, read-out: GTPγS κ EC50

T1 sequence (P35372 whole entry, species assumed): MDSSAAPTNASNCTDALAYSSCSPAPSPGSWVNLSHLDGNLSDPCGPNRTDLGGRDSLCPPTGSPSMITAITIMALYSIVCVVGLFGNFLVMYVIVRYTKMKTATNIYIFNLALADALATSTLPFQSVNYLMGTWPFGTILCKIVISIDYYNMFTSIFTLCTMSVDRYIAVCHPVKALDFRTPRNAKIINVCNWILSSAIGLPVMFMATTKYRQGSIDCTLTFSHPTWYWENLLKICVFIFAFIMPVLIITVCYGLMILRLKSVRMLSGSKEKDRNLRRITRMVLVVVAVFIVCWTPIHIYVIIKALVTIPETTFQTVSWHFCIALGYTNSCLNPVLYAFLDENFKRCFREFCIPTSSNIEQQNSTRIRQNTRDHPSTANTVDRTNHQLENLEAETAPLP
T3 sequence (P41145 whole entry): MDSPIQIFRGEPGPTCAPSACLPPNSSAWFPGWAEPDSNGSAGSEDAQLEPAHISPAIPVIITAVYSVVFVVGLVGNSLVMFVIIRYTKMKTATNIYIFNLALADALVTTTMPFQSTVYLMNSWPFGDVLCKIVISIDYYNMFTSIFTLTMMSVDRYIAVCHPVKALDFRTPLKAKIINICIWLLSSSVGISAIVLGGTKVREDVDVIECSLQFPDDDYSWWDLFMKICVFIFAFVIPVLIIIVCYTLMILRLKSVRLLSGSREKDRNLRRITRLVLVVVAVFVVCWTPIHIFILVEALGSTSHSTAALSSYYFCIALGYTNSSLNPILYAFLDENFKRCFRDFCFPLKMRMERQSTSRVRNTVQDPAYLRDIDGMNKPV
T2 sequence (P41146 whole entry): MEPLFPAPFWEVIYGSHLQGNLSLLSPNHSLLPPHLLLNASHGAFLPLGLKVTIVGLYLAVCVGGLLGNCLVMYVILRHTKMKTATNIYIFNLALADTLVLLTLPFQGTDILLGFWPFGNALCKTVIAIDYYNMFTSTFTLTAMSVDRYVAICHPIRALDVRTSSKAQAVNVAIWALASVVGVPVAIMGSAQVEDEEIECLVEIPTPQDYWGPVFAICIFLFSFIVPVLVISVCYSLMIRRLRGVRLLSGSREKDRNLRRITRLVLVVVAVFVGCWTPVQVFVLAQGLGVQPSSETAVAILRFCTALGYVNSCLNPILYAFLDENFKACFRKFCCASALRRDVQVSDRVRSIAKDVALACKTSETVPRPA

C[C@H]1[C@H]2Cc3ccc(O)cc3C1(CCN[C@H]1C[C@H]3CCC[C@@H](C1)N3[C@@H]1C[C@@H]3CCCC[C@@H](C3)C1)CCN2C [Compound 63, (2R,6R,11R)-6-(2-(((1R,3R,5S)-9-((1R,6S,8r)-bicyclo[4.3.1]decan-8-yl)-9-azabicyclo[3.3.1]nonan-3-yl)amino)-ethyl)-3,11-dimethyl-1,2,3,4,5,6-hexahydro-2,6-methanobenzo[d]azocin-8-ol]
EC50 [1]: 2.43 ± 0.67 nM | Emax [1]: 74.7 ± 2.4% | EC50 [2]: 0.00123 ± 0.00031 µM | Emax [2]: 21.8 ± 1.31% | Ki [3]: 125 ± 24.2 nM

CC(C)C[C@H](NCCCC[C@]12CCN(CC3CC3)[C@H](Cc3ccc(O)cc31)[C@@H]2C)C(=O)O [Compound 24, (4-((2R,6R,11R)-3-(cyclopropyl-methyl)-8-hydroxy-11-methyl-2,3,4,5-tetrahydro-2,6-methanobenzo[d]azocin-6(1H)-yl)butyl)-L-leucine]
EC50 [1]: 5.46 ± 0.51 nM | Emax [1]: 19.5 ± 2.26% | Emax ([4]; U2OS cells): 54 ± 4.06% | EC50 [4, 10]: 3.56 ± 0.91 nM | Emax [2]: -0.4 ± 0.6% | Ki [5, 11]: 0.55 ± 0.11 nM | Emax ([6]; U2OS cells): 98.3 ± 4.33% | EC50 [6, 12]: 0.51 ± 0.072 nM | Ki [7, 13]: 2.89 ± 0.63 nM | EC50 [8, 14]: 9.32 ± 2.97 nM | Emax ([8]; HEK-293 or CHO cells): 102 ± 5.57% | EC50 [9]: 1.94 ± 0.28 nM | Emax [9]: 77.3 ± 3.18%

C[C@H]1[C@H]2Cc3ccc(O)cc3C1(CCN[C@H]1C[C@H]3CCC[C@@H](C1)N3CC[C@@H]1CC[C@H]3C[C@@H]1C3(C)C)CCN2C [Compound 64, (2R,6R,11R)-6-(2-(((1R,3S,5S)-9-(2-((1S,2S,5S)-6,6-dimethylbicyclo-[3.1.1]heptan-2-yl)ethyl)-9-azabicyclo-[3.3.1]nonan-3-yl)amino)ethyl)-3,11-dimethyl-1,2,3,4,5,6-hexahydro-2,6-methanobenzo[d]azocin-8-ol]
EC50 [1]: 19.6 ± 5.19 nM | Emax [1]: 43.5 ± 2.96% | EC50 [2]: 7.45 ± 0.929 µM | Emax [2]: 51.8 ± 7.76% | Ki [3]: 563 ± 97.5 nM

COC(=O)c1ccc(CC(=O)NCC[C@]23CCN(CC4CC4)[C@H](Cc4ccc(OC)cc42)[C@@H]3C)cc1 [Compound 30, methyl 4-(2-((2-((2R,6R,11R)-3-(cyclopropylmethyl)-8-methoxy-11-methyl-2,3,4,5-tetrahydro-2,6-methano-benzo[d]azocin-6(1H)-yl)ethyl)amino)-2-oxoethyl)benzoate]
Emax [1]: 0% | Emax ([4]; U2OS cells): -1% | Emax [2]: 1 ± 0.5% | Ki [5, 11]: 6.18 ± 1.72 nM | Emax ([6]; U2OS cells): 104 ± 2.96% | EC50 [6, 12]: 13.1 ± 1.48 nM | Ki [7, 13]: 389 ± 124 nM | EC50 [8, 14]: 259 ± 33.1 nM | Emax ([8]; HEK-293 or CHO cells): 83 ± 7.77% | EC50 [9]: 230 ± 27.5 nM | Emax [9]: 51 ± 3.51%

COC(=O)[C@H](Cc1ccccc1)NCCCC[C@]12CCN(CC3CC3)[C@H](Cc3ccc(O)cc31)[C@@H]2C [Compound 27]
Emax [1]: 1% | Emax ([4]; U2OS cells): 12.7 ± 1.86% | EC50 [4, 10]: 0.27 ± 0.11 nM | Emax [2]: 1% | Ki [5, 11]: 0.054 ± 0.01 nM | Emax ([6]; U2OS cells): 106 ± 7.13% | EC50 [6, 12]: 0.15 ± 0.023 nM | Ki [7, 13]: 0.071 ± 0.021 nM | EC50 [8, 14]: 0.6 ± 0.12 nM | Emax ([8]; HEK-293 or CHO cells): 61.7 ± 4.33% | EC50 [9]: 0.27 ± 0.058 nM | Emax [9]: 22.3 ± 2.85%

C[C@H]1[C@H]2Cc3ccc(O)cc3[C@]1(CCNC(=O)Cc1ccc(C(=O)O)cc1)CCN2CC1CC1 [Compound 31, 4-(2-((2-((2R,6R,11R)-3-(cyclopropyl-methyl)-8-hydroxy-11-methyl-2,3,4,5-tetrahydro-2,6-methanobenzo[d]azocin-6(1H)-yl)ethyl)amino)-2-oxoethyl)-benzoic acid]
Emax [1]: 0% | Emax ([4]; U2OS cells): 29.7 ± 5.04% | EC50 [4, 10]: 53.4 ± 8.62 nM | Emax [2]: -1.25% | Ki [5, 11]: 18.4 ± 3.6 nM | Emax ([6]; U2OS cells): 104 ± 3.48% | EC50 [6, 12]: 18.5 ± 2.16 nM | Ki [7, 13]: 25.1 ± 7.56 nM | EC50 [8, 14]: 94.2 ± 33.8 nM | Emax ([8]; HEK-293 or CHO cells): 88.7 ± 6.89% | EC50 [9]: 8.77 ± 1.37 nM | Emax [9]: 58 ± 4.73%

C[C@H]1[C@H]2Cc3ccc(O)cc3[C@]1(CCCCN[C@@H](Cc1ccccc1)C(N)=O)CCN2CC1CC1 [Compound 23, (S)-2-((4-((2R,6R,11R)-3-(cyclopropyl-methyl)-8-hydroxy-11-methyl-2,3,4,5-tetrahydro-2,6-methanobenzo[d]azocin-6(1H)-yl)butyl)amino)-3-phenyl-propanamide]
Emax [1]: 1% | Emax ([4]; U2OS cells): 30 ± 0.58% | EC50 [4, 10]: 0.16 ± 0.055 nM | Emax [2]: -1.5% | Ki [5, 11]: 0.048 ± 0.01 nM | Emax ([6]; U2OS cells): 104 ± 4.06% | EC50 [6, 12]: 0.079 ± 0.01 nM | Ki [7, 13]: 0.2 ± 0.012 nM | EC50 [8, 14]: 1.49 ± 0.58 nM | Emax ([8]; HEK-293 or CHO cells): 99 ± 6.35% | EC50 [9]: 0.28 ± 0.073 nM | Emax [9]: 56 ± 3.06%

COC(=O)[C@H](C)NCC[C@]12CCN(CC3CC3)[C@H](Cc3ccc(OC)cc31)[C@@H]2C [Compound 38, methyl (2-((2R,6R,11R)-3-(cyclopropyl-methyl)-8-methoxy-11-methyl-2,3,4,5-tetrahydro-2,6-methanobenzo[d]azocin-6(1H)-yl)ethyl)-L-alaninate]
EC50 [1]: 551 ± 173 nM | Emax [1]: 15.8 ± 1.03% | Emax ([4]; U2OS cells): 70 ± 2% | EC50 [4, 10]: 141 ± 45.5 nM | Emax [2]: -0.17 ± 0.93% | Ki [5, 11]: 0.78 ± 0.14 nM | Emax ([6]; U2OS cells): 112 ± 2.91% | EC50 [6, 12]: 2.11 ± 0.23 nM | Ki [7, 13]: 94.7 ± 18.6 nM | EC50 [8, 14]: 287 ± 30 nM | Emax ([8]; HEK-293 or CHO cells): 109 ± 5.46% | EC50 [9]: 137 ± 16.1 nM | Emax [9]: 53 ± 3.51%

COc1ccc2c(c1)[C@]1(CCO)CCN(CC3CC3)[C@H](C2)[C@@H]1C [Compound 43, 2-((2R,6S,11R)-3-(cyclopropylmethyl)-8-methoxy-11-methyl-2,3,4,5-tetrahydro-2,6-methanobenzo[d]azocin-6(1H)-yl)ethan-1-ol]
EC50 [1]: 1150 ± 199 nM | Emax [1]: 22 ± 1.58% | EC50 [4]: 494 ± 140 nM | Emax ([4]; U2OS cells): 59.3 ± 3.18% | Emax [2]: -1% | Ki [5]: 3.63 ± 0.7 nM | EC50 [6]: 17.8 ± 1.45 nM | Emax ([6]; U2OS cells): 102 ± 3.71% | Ki [7]: 233 ± 46.9 nM | EC50 [8]: 355 ± 63.6 nM | Emax ([8]; HEK-293 or CHO cells): 97.7 ± 5.36% | EC50 [9]: 99 ± 5.84 nM | Emax [9]: 107 ± 5.83%

C[C@H]1[C@H]2Cc3ccc(O)cc3[C@]1(CCCCN[C@@H](CCCCN)C(=O)O)CCN2CC1CC1 [Compound 25, (4-((2R,6R,11R)-3-(cyclopropyl-methyl)-8-hydroxy-11-methyl-2,3,4,5-tetrahydro-2,6-methanobenzo[d]azocin-6(1H)-yl)butyl)-L-lysine]
Emax [1]: 1% | Emax ([4]; U2OS cells): 50 ± 0.58% | EC50 [4, 10]: 0.1 ± 0.019 nM | Emax [2]: -1.4% | Ki [5, 11]: 0.077 ± 0.014 nM | Emax ([6]; U2OS cells): 99 ± 4.58% | EC50 [6, 12]: 0.17 ± 0.038 nM | Ki [7, 13]: 3.58 ± 1.45 nM | EC50 [8, 14]: 2.33 ± 0.51 nM | Emax ([8]; HEK-293 or CHO cells): 104 ± 5.03% | EC50 [9]: 1.29 ± 0.11 nM | Emax [9]: 48.3 ± 0.67%
